From a melting point compilation (Tetko et al.; mined from patent text by program, amines drawn as free bases though some values may be those of a salt)

| melting point | Compound |
| --- | --- |
| 175 °C | O=C(NCc1ccc(F)cc1)c1ccc2nc(N[C@@H]3CCc4ccccc43)ccc2c1 |
| 184 to 187 °C | Cn1nc2c(oc3ccccc32)c1NC=O |
| 66 to 68 °C | COc1ccc(-c2nc(CN)no2)cc1 |
| 118 to 120 °C | COc1ccc(OC)c(S(=O)(=O)Nc2onc(C)c2Br)c1 |
| 271 to 273 °C | O=C(O)c1ccc2oc([N+](=O)[O-])c(-c3ccccc3)c2c1 |
| 133 °C | CCc1nc2c(C)c(C#N)c(C)nc2n1-c1ccc(CCNC(=O)NS(=O)(=O)c2ccc(C)cc2)cc1 |
| 198 to 200 °C | CCOC(=O)c1nnc2ccc(-c3ccco3)cc2c1O |
| 100 to 102 °C | CCNc1cc2ccc(OC)c(OC)c2c2cc(C)ccc12 |
| 212 to 214 °C | Cc1nc(N2C[C@@H](Cc3ccccc3)NC2=O)sc1C(=O)NCc1ccccc1 |
| 200 to 212 °C | N[C@H]1CCN(c2ccc3c(NC(=O)CCc4ccccc4Cl)c(Cl)ccc3n2)C1 |
| 215 to 216 °C | CCn1cc(C(=O)O)c(=O)c2cc(F)c(N3CCC(CNCCO)C3)c(F)c21 (stereo not given) |
| 123 to 128 °C | CC(=O)NC[C@H]1CN(c2ccc3c(c2)OCCCC3=O)C(=O)O1 |
| 104 to 106 °C | C=CCN1C(=O)C2CC2(c2ccc(N)cc2)C1=O (stereo not given) |
| 235 to 237 °C | O=C(O)CN(CC(=O)c1ccccc1)c1c(C(=O)O)[nH]c2cc(Cl)cc(Cl)c12 |
| 196 to 197 °C | c1cn(CCOc2ccc(-c3nnn[nH]3)cc2)cn1 |
| 200 to 205 °C | Cc1c2n(c3ccccc13)C(=O)C(=Cc1ncn(S(=O)(=O)N(C)C)c1C)CC2 |
| 117 to 141 °C | CCNC(=O)c1ccccc1Nc1nc(Nc2c(OC)ccc3c2CC(=O)N(CC)CC3)ncc1Cl |
| > 300 °C | CC1CC(=O)NN=C1c1ccc(C2=NNC(=O)CC2C)cc1 (stereo not given) |
| 168 °C | CN(CCCCOc1ccc(C=C2SC(=O)NC2=O)cc1)c1nc2ccccc2o1 |
| 186 to 187 °C | CCN(Cc1ccc2nc(C)[nH]c(=O)c2c1)C(N)=S |
| 141 to 142 °C | CCCc1cc(Cl)c2oc(C(=O)c3ccccc3)c(C)c2c1OC(=O)c1ccccc1 |
| 84 to 87 °C | COC(=O)CCC(=O)c1cc(NC(C)=O)ccc1OCC1CO1 (stereo not given) |
| 158 to 160 °C | CCNc1nc(Cl)ccc1C(=O)O |
| 155 to 156 °C | Cc1ccc(NC(=O)C2CC2)c(-c2nc(C(F)(F)F)cs2)c1 |
| 272 °C | O=c1oc2c(c(O)c1-c1ccc(F)cc1)CCCC2 |

| melting point | Compound |
| --- | --- |
| 94 to 95.1 °C | Cc1c(Cl)cc(C=O)c(O)c1Cl |
| 137 °C | Cc1cccc(NCC2=NCCN2C(=O)Nc2ccccc2)c1C |
| 163 to 165 °C | CCOC(=O)C1=C(C)NC(COCCn2ccnc2)=C(C(=O)OCC)C1c1ccccc1Cl (stereo not given) |
| 80 to 82 °C | CC(C)(C)OC(=O)NCCOC(=O)COc1ccc(CCCCN(C(=N)N)C(=O)c2nc(Cl)c(N)nc2N)cc1 |
| 82 °C | CC(=O)N(C)CCc1coc2ccc3c(c12)CCCO3 |
| 267 to 268 °C | Cc1nc(Nc2ccc(Cl)cc2)sc1-c1nc2ccccc2c(=O)n1-c1ccc(Cl)cc1 |
| 155 to 157 °C | COC(=O)c1ccc(Cl)cc1-n1c(CCl)nc2ccccc2c1=O |
| 119 to 121 °C | COC(=O)c1cccc2nc(N3CCCCC3)n(Cc3ccc(-c4ccccc4C#N)cc3)c12 |
| 237 to 239 °C | Cc1ccc2c(n1)C(=O)N(c1cccc(S(C)(=O)=O)c1C)C2=O |
| 135 to 137 °C | COc1cc(-c2csc(CN(C)C(=O)OC(C)(C)C)n2)cc(OC)c1OC(C)=O |
| 120 °C | CCCNCCOc1ccc(NC(=O)c2n[nH]c3c2C(=O)CCC3)cn1 |
| 146 to 148 °C | CCOc1cc2oc(=O)c3c(c2cc1OCC)CCN(CC(C)=O)C3 |
| 190 to 191 °C | COc1cc(CC(=O)Nc2nn(-c3ccccc3)cc2C=O)ccc1OCc1nc(-c2ccco2)oc1C |
| 140 to 142 °C | O=Cc1ccc2sc(=O)[nH]c2c1 |
| 220 to 222 °C | N#CC(C#N)=C1Sc2nc3ccc([N+](=O)[O-])cc3nc2S1 |
| 178 to 180 °C | Cc1nnnn1-c1ncccc1C(=O)O |
| 162 to 164 °C | CCN(C)c1nc(-c2ccncc2)nc2sc(C#N)c(C)c12 |
| 212 to 213 °C | COc1cc(-c2nc3cc(OC)cc(OC)c3c(=O)[nH]2)cc(N2CCN(C(C)C)CC2)c1 |
| 74 to 75 °C | C(=C\c1nc(CSc2ccc(CCCn3ccnc3)cc2)co1)/c1ccccc1 |
| 59 to 61 °C | CCc1cc(OC)c(O)c([N+](=O)[O-])c1 |
| 238 to 248 °C | Cc1[nH]c(C(=O)NCCCN(C)C)c(C)c1-c1nc2ccc(C(=O)c3ccccc3)cc2[nH]1 |
| 201 to 204 °C | COc1ccc(C(=O)N2CCNC2=Nc2c(Cl)cccc2Cl)cc1OC |
| 100 to 101 °C | CCCCc1oc2ccc(CO)cc2c1C1(c2ccc(O)cc2)OCCO1 |
| 108 to 109 °C | CC(Cc1cccc(Cl)c1)(NC=O)c1ccccc1 (stereo not given) |

Continued, compound first:

| Compound | melting point |
| --- | --- |
| CC1CCN(c2c(-c3c(F)cc(F)cc3F)c(Cl)nc3nc(SCc4ccccc4)nn23)CC1 | 147 °C |
| COC(=O)c1nc(CN=[N+]=[N-])n2c1CN=C(c1ccccc1Cl)c1cc(Cl)ccc1-2 | 187 to 189 °C |
| CS(=O)(=O)N1CCC=CCC1 | 95 to 96 °C |
| CN1CCN(C(=O)Cn2c(=O)sc3ncc(Cl)cc32)CC1 | 198 to 200 °C |
| CC(C)CCCC(C)C1CCC2(C#N)C3C=CC4C(C)(C)C(OC(=O)c5ccccc5)CCC4(C)C3CCC12C (stereo not given) | 232 to 233 °C |
| CC(=NOc1ccc(F)cc1)c1cc(Cl)ccc1NS(=O)(=O)C(F)(F)F | 71 to 73 °C |
| Cn1c(-c2cnc(-c3ccccc3)nc2)cnc1-c1ccccc1 | 211 °C |
| O=C(Nc1cccc(C(F)(F)F)c1)c1ccccc1SSc1ccccc1C(=O)Nc1cccc(C(F)(F)F)c1 | 167 to 168 °C |
| O=Cc1ccc(-c2cccc(-c3ccnc4c(C(=O)c5cccs5)cnn34)c2)cc1 | 156 to 158 °C |
| OC(c1ccc(Cl)cc1Cl)C(Oc1ccc(Cl)cc1)n1ccnc1 (stereo not given) | 108 to 110 °C |
| COC(=O)Oc1c(Cl)cc(Cl)cc1[N+](=O)[O-] | 60 to 61 °C |
| O=C1N=c2cc(O)c(O)cc2=NC1=O | > 350 °C |
| COC12C=CC(CC1)C1=C2C(=O)c2c(O)ccc(O)c2C1=O (stereo not given) | 239 to 241 °C |
| CCc1cc(C(C)(C)c2ccc(C(C)(C)c3cc(CC)c(NC)c(CC)c3)cc2)cc(CC)c1NC | 105 to 108 °C |
| OC(CN1CCN(c2ccncc2)CC1)c1ccc2nonc2c1 (stereo not given) | 159 to 162 °C |
| Cc1ccc(C(=O)Nc2ccc(N3CCCC3)c(C(F)(F)F)c2)cc1Nc1nccc(-c2cccnc2)n1 | 129 to 130 °C |
| OCc1cccc(Nc2nc(Oc3ccccc3)nc(Oc3ccc(Cl)cc3)n2)c1 | 110 to 114 °C |
| CC(C)(C)NC(=O)[C@@H]1CCCN1C(=O)[C@@H](O)[C@H](Cc1ccccc1)NC(=O)[C@H](CC(N)=O)NC(=O)COc1cccc(N)c1 | 108 to 114 °C |
| O=C(N(C=Cc1ccc(F)cc1)C=Cc1ccc(F)cc1)C1(O)CSc2ccccc21 (stereo not given) | 150 to 151 °C |
| COc1cnc(C(=O)Nc2c(Cl)cncc2Cl)cc1OC1CCCC1 | 129 to 130 °C |
| CC(C)C[C@H](NC(=O)COc1ccc(Cl)cc1)C(=O)N[C@@H](Cc1ccccc1)C(=O)CSCc1ccco1 | 116 to 117 °C |
| O=C(NNS(=O)(=O)c1c(Cl)cccc1Cl)c1ccc2oc3ccccc3c2c1 | 202 to 203 °C |
| Cc1ccc(-c2cncnc2C#N)cc1 | 107 to 109 °C |

| Compound | melting point |
| --- | --- |
| NC(=O)C1CN(Cc2nc(-c3ccccc3)c(-c3ccccc3)o2)CCN1CC(=O)Nc1c(Cl)cc(N)cc1Cl (stereo not given) | 137 to 139 °C |
| Nc1ncnc2c1ncn2C=CC=O | 258 to 260 °C |
| O=C(O)Cc1cc(Cc2cccc(Oc3ccccc3)c2)ccc1Nc1c(Cl)cccc1Cl | 116 to 117 °C |
| CCNc1nc(SC)ncc1C=Nc1cc(OC)cc(OC)c1 | 100 to 105 °C |
| O=C(Nc1cc(S(=O)(=O)NC(CO)CO)sc1Cl)c1cnn2c(C(F)F)cc(-c3ccc(C(F)(F)F)cc3)nc12 | 241 °C |
| O=C(Nc1ccc(N2CCN(C(=O)Nc3ccc(C(=O)O)cc3Cl)CC2)cc1)Nc1ccccc1F | 250 to 253 °C |
| COc1c(C)c(N2CCN(c3ccc4c(c3)OCCO4)CC2)c(C)c2c1OC(C)(C)C2 | 167 to 168 °C |
| OC(c1cc(Cl)cc(Cl)c1)c1cc(Cl)cc(Cl)c1 | 126 °C |
| O=C1CCC(N2Cc3c(OCc4ccc(CN5CCN(S(=O)(=O)C6CC6)CC5)cc4)cccc3C2=O)C(=O)N1 (stereo not given) | 145 to 147 °C |
| O=C(C=Cc1ccc(Oc2ccccc2)cc1)c1ccc(F)cc1 | 116 °C |
| FC(F)(F)COc1cc(-c2cc(C(F)(F)F)n3cnc(-c4ccncc4)c3n2)ccc1C(F)(F)F | 233 °C |
| c1ccc2c(c1)Sc1ccccc1N2c1ccc(-n2ccnc2-c2nccn2-c2ccc(N3c4ccccc4Sc4ccccc43)cc2)cc1 | 227 to 232 °C |
| FC(F)(F)c1cc(C(F)(F)F)n(-c2ccc(Nc3noc4ccccc34)cc2)n1 | 209 to 210 °C |
| COC(=O)CCN(C)CCNC(=O)c1nc(Cl)c(N)nc1N | 136 to 137 °C |
| COc1cccc(NC(=O)NC2CC(c3ccccc3F)c3ccccc3N(CC(=O)NC(C)(C)C)C2=O)c1 (stereo not given) | 265 to 280 °C |
| CCC(=O)OCCSCC(=O)NC/C=C\COc1cc(CN2CCCCC2)ccn1 | 99 to 106 °C |
| CSC(=C[N+](=O)[O-])NCCCCc1c[nH]cn1 | 157 to 158 °C |
| CON1CCC(C2NC(=O)C(c3c(C)cc(C)cc3C)=C2O)CC1 (stereo not given) | 206 to 209 °C |
| CCSc1cnc(OCCOc2ncnc(NS(=O)(=O)c3ccc(C(C)(C)C)cc3)c2-c2ccc(C)cc2)nc1 | 177 to 178 °C |
| COC(=O)c1ccc(O)cc1NC(=O)C=Cc1ccc(-c2ccccc2)cc1 | 292 to 296 °C |
| C=C1[C@H](C(=O)OC)[C@H]1C(=O)OC | 34.1 to 34.9 °C |
| OC[C@@H]1O[C@H](n2c(NC3CC3)nc3c(Br)c(Cl)c(Cl)cc32)[C@@H](O)[C@H]1O | 205 to 208 °C |
| N#Cc1cc(Sc2ccc(Cl)c(Cl)c2)ccc1[N+](=O)[O-] | 136 to 138 °C |
